# In paper PMC3454389, “Mining the Sinorhizobium meliloti Transportome to Develop FRET Biosensors for Sugars, Dicarboxylates and Cyclic Polyols” (PLoS ONE, 2012):
# Columns and labels:
# SMc04259-CY = SMc04259-CY (Sinorhizobium meliloti, UniProt Q92P64); assay: FRET biosensor SMc04259-CY, in vitro ligand titration; type: binding
# Protocol: (§1) Ligand-induced FRET ratio changes of purified FRET biosensor were screened using a LS55 luminescence spectrometer (PerkinElmer Instruments). Excitation (ex.) was at (λ/slit width) 433/10 nm (CFP) or 549/10 nm (OFP). Emission (em.) was measured at 475/10 nm (CFP), 527/10 nm (YFP), 573/10 nm (OFP) and 644/10 nm (RFP). To confirm that Aphrodite and mKate2 were properly folded their fluorescence was individually tested by direct excitation at 510/6 nm and 588/10 nm respectively.
# (§2) Affinity constants (Kd) of FRET biosensors with specific ligands were established using a monochromator microplate reader (Safire, Tecan, Switzerland; CFP ex.: (λ\bandwidth) 433/12 nm, em.: 475/12 nm; YFP em.: 527/12 nm. OFP ex.: 533/12 nm, em.: 563/12 nm; RFP em.: 615/12 nm). Proteins were diluted to give relative fluorescence units (RFU) in the detection range of 30,000 to 50,000 RFU at a gain of 90 to 100, and then were added to a dilution series (10^−3 to 10^−11 M) of ligand in Tris-HCl (pH 8.5, 50 mM). The change in relative emission intensities at 527/477 nm (YFP/CFP) or 615/563 nm (RFP/OFP) was used to determine Kd by fitting the titration curves to a single-site-binding isotherm: [drawing 1] with: R, ratio; Rapo, ratio without ligand; Rsat, ratio at saturation of ligand; n, number of equal binding sites; [L], ligand concentration. Non-linear regression was used to fit the curves using SigmaPlot 11 (Systat Software Inc.) (Hill equation, 4 Parameters, b = 1). All measurements were done in quadruplicate.
# [1] = test system: genes encoding the ABC-transporter (RL2376-9); settings: cited from earlier work
# RL2376-CY = biological target: T1, RL2376-CY (Rhizobium leguminosarum, UniProt Q1MGQ3); assay: FRET biosensor RL2376-CY, in vitro ligand titration; type: binding
# T1 sequence (Q1MGQ3 24-320): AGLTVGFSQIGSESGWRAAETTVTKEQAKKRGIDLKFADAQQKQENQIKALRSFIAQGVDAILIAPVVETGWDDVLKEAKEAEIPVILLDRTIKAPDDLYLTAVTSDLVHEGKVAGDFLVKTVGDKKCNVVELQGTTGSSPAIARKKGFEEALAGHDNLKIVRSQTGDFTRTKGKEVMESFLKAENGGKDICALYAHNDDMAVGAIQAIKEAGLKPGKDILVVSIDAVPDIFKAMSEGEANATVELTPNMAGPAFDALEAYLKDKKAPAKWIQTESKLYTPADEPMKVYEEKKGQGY
# Protocol: as §1, §2
# SMc02324-CY = SMc02324-CY (Sinorhizobium meliloti, UniProt Q92S11); assay: FRET biosensor SMc02324-CY, in vitro ligand titration; type: binding; settings: for reaction of biosensor with compound (FRET) / Kd: SMc02324-CY; for Kd: pCYS (pLMB291), Tris-HCl pH 8.5
# Protocol: as §1, §2
# SMc02774-CY = SMc02774-CY (Sinorhizobium meliloti, UniProt Q92TD7); assay: FRET biosensor SMc02774-CY, in vitro ligand titration; type: binding; settings: for Kd: pCYS (pLMB292), Tris-HCl pH 8.5
# Protocol: as §1, §2
# SMb20036 FBS-RO version = assay: FBS-RO version of SMb20036 biosensor, FRET ratio change on ligand; type: binding, Sinorhizobium meliloti; settings: FBS-RO version (RFP/OFP) of SMb20036
# Protocol: as §1
# as §2, with “Non-linear regression was used to fit the curves using SigmaPlot 11 (Systat Software Inc.) (Hill equation, 4 Parameters, b = 1). All measurements were done in quadruplicate.” left out
# SMb20036-CY = SMb20036-CY (Sinorhizobium meliloti, UniProt Q92XC3); assay: biochemical; type: binding; settings: for change in FRET ratio on addition of compound: compounds similar in structure to D-quinic acid
# Protocol: as §1, §2
# SMc02324-RO = SMc02324-RO (Sinorhizobium meliloti, UniProt Q92S11); assay: FRET biosensor SMc02324-RO, in vitro ligand titration; type: binding; settings: pROS (pLMB523), Tris-HCl pH 8.5
# Protocol: as §1
# as §2, with “Non-linear regression was used to fit the curves using SigmaPlot 11 (Systat Software Inc.) (Hill equation, 4 Parameters, b = 1). All measurements were done in quadruplicate.” left out
# rcc03024-RO = biological target: T2, rcc03024-RO (Rhodobacter capsulatus, UniProt P37735); assay: rcc03024-RO, FRET ratio change on ligand; type: binding
# T2 construct: made in house; host or cells: E. coli Rosetta2
# T2 sequence (P37735 27-333): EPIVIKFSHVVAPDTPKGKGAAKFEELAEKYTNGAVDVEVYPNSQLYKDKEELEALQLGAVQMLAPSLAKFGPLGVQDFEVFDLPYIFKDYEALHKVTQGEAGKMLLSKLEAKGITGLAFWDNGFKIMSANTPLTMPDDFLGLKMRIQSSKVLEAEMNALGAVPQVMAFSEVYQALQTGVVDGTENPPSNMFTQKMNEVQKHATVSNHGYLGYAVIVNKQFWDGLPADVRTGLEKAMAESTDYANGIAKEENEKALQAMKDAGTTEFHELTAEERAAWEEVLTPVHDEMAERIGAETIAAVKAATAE
# Protocol: as §1
# as §2, with “Non-linear regression was used to fit the curves using SigmaPlot 11 (Systat Software Inc.) (Hill equation, 4 Parameters, b = 1). All measurements were done in quadruplicate.” left out
# rcc03024-CY (DctP) = biological target: T3, rcc03024-CY (DctP) (Rhodobacter capsulatus, UniProt P37735); assay: FRET biosensor rcc03024-CY, in vitro ligand titration; type: binding; settings: for Kd: pCYS (pLMB414), Tris-HCl pH 8.5
# T3 construct: made in house; host or cells: E. coli Rosetta2
# T3 sequence (P37735 27-333): T2 sequence (P37735 27-333)
# Description: Ligand-induced FRET ratio changes of purified FRET biosensor were screened using a LS55 luminescence spectrometer (PerkinElmer Instruments).
# Non-linear regression was used to fit the curves using SigmaPlot 11 (Systat Software Inc.) (Hill equation, 4 Parameters, b = 1). All measurements were done in quadruplicate.
# SMc04259-RO = assay: SMc04259-RO, FRET ratio change on ligand; type: binding, Sinorhizobium meliloti
# Protocol: as §1
# as §2, with “Non-linear regression was used to fit the curves using SigmaPlot 11 (Systat Software Inc.) (Hill equation, 4 Parameters, b = 1). All measurements were done in quadruplicate.” left out
# Sequence of SMc02324-CY (Q92S11 entry or part of it): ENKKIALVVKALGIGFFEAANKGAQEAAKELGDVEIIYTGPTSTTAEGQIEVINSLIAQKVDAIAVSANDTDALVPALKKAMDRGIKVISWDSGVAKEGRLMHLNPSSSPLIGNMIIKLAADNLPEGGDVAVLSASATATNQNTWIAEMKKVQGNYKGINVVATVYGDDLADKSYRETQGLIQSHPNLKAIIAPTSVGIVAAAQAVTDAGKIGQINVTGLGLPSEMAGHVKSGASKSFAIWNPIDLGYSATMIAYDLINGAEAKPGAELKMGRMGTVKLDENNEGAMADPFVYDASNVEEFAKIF
# Sequence of SMb20036-CY (Q92XC3 entry or part of it): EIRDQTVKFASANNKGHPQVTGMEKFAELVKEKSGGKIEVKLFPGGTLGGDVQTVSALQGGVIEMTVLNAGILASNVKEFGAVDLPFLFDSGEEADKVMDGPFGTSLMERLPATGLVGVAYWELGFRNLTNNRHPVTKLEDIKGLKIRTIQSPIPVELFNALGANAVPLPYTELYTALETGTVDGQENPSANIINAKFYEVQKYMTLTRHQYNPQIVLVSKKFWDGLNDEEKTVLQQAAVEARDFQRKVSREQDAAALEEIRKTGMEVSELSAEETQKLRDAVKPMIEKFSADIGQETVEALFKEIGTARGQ
# Sequence of SMc02774-CY (Q92TD7 entry or part of it): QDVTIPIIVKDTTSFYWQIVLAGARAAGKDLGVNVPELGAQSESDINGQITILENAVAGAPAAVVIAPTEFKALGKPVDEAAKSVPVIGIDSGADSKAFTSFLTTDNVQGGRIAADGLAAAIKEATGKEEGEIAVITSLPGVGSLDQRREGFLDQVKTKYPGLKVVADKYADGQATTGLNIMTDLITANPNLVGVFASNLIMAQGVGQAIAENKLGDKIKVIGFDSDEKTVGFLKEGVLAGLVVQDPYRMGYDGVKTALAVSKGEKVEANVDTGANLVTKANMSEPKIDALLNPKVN
# Sequence of SMc04259-CY (Q92P64 entry or part of it): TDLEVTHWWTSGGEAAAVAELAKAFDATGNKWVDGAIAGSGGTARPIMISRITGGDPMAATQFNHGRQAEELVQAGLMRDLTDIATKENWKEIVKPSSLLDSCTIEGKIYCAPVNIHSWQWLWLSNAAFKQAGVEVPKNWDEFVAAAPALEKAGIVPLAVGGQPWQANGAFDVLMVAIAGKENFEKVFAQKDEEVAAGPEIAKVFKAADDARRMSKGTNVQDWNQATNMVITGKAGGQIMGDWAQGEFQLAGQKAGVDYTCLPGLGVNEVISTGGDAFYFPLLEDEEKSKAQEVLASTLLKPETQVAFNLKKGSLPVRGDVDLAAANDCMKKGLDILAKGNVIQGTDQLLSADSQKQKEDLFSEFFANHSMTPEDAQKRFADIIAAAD
# Sequence of SMc02324-RO (Q92S11 entry or part of it): as the sequence (Q92S11 entry or part of it) above
structure (smiles),measurement,setting,value
OC[C@H]1O[C@@H](O[C@@H]2[C@@H](CO)OC(O)(CO)[C@H]2O)[C@H](O)[C@@H](O)[C@H]1O (mixture of isomers) [lactulose],change in FRET with compound,SMc04259-CY; SMc04259-CY,no change in FRET
OC1OC[C@@H](O)[C@@H](O)[C@@H]1O (stereo partly drawn) [D-arabinose],Inducer of gene expression (fold change),"[1]; RL2376, Table 1",D-arabinose (3.6) fold
same,induction of genes RL2376-9 (fold),"[1]; microarray, compared with cells grown on glucose",up to 3.6 fold
same,change in FRET ratio on addition of compound,RL2376-CY,no change in FRET ratio
C[C@H]1OC(O)[C@H](O)[C@@H](O)[C@H]1O (stereo partly drawn) [D-fucose],reaction of biosensor with compound (FRET),SMc02324-CY,did not react
same,reaction of biosensor with compound (FRET),SMc02774-CY; SMc02774-CY,did not react
OC[C@@H](O)[C@@H]1OC(O)[C@H](O)[C@H]1O (stereo partly drawn) [D-galactofuranose],Kd,"RL2376-CY; hypothetical solution of pure D-galactofuranose, furanoses 7.7% of D-galactose in solution, read-out: estimated Kd for D-galactofuranose specifically",408 ± 131 nM
O=C(O)[C@]1(O)C[C@@H](O)[C@@H](O)[C@H](O)C1 [D-quinic acid],change in FRET ratio on binding ligand,SMb20036 FBS-RO version,no change in FRET ratio
same,difference in the affinity for D-quinic acid compared with that for shikimic acid,SMb20036-CY,"> 15,000 fold"
same,Kd,"SMb20036-CY; pCYS (pLMB229), Tris-HCl pH 8.5",5.9 nM
C[C@H](O)[C@@H](O)[C@@H](O)[C@H](O)C=O [L-fucose],Kd,SMc02324-CY,11000 nM
same,difference between the affinity of SMc02774-CY for L-fucose compared to its affinity for L-rhamnose,SMc02774-CY,three order-magnitude difference
same,Kd,SMc02774-CY; SMc02774-CY,3.6 nM
same,Kd,SMc02324-RO,19000 nM
O=C(O)C[C@H](O)C(=O)O [L-malate],change in FRET ratio on binding ligand,rcc03024-RO,no change in FRET ratio
same,Kd,rcc03024-CY (DctP),70 nM
C[C@H](O)[C@H](O)[C@@H](O)[C@@H](O)C=O [L-rhamnose],difference in affinity of SMc02324 for L-rhamnose compared to L-fucose,SMc02324-CY,three order-magnitude difference
same,Kd,SMc02324-CY,7.3 nM
same,Kd,SMc02774-CY; SMc02774-CY,1600 nM
same,Kd,SMc02324-RO,6.9 nM
CC(=O)N[C@H]1[C@H]([C@H](O)[C@H](O)CO)OC(O)(C(=O)O)C[C@@H]1O (stereo partly drawn) [N-acetyl-5-neuraminic acid],change in FRET ratio on addition of compound,SMb20036-CY,no change in FRET ratio
O=C(O)c1ccccc1 [benzoic acid],change in FRET ratio on addition of compound,SMb20036-CY,no change in FRET ratio
O=C[C@H](O)[C@@H](O)[C@H](O[C@@H]1O[C@H](CO)[C@@H](O)[C@H](O)[C@H]1O)[C@H](O)CO [cellobiose],Kd,SMc04259-CY,33 nM
same,change in FRET ratio on binding ligand,SMc04259-RO,no change in FRET ratio
O=C(O)CC(O)(CC(=O)O)C(=O)O [citrate],change in FRET ratio on addition of compound,rcc03024-CY (DctP),no change in FRET ratio
[2H]C(=O)C[C@H](O)[C@H](O)CO [deoxy-D-ribose],reaction of biosensor with compound (FRET),SMc02324-CY,did not react
OC[C@@H](O)[C@H](O)[C@H](O)[C@@H](O)CO [dulcitol],reaction of biosensor with compound (FRET),SMc02324-CY,did not react
OC[C@@H](O)[C@@H](O)CO [erythritol],reaction of biosensor with compound (FRET),SMc02324-CY,did not react
O=C(O)/C=C/C(=O)O [fumarate],ΔFRET on saturation (%),rcc03024-CY (DctP); change in FRET ratio on ligand binding,−2.7±0.2%
same,Kd,rcc03024-CY (DctP),58 nM
